{
  "source": "paper PMC6679700",
  "about": "(International Journal of Nanomedicine, 2019)",
  "key": {"[1]": {"conditions": "cited from earlier work"}, "[2]": {"experiment": "Solubility of FK506 in water, MCE and MCE ME", "type": "physicochemical", "conditions": "menthol/camphor eutectic, ratio 3/1 (w/w)"}, "TRPM8": {"tested_on": "TRPM8", "conditions": "skin; cited from earlier work"}},
  "data": [
    {"smiles": "C=CC[C@@H]1/C=C(\\C)C[C@H](C)C[C@H](OC)[C@H]2O[C@@](O)(C(=O)C(=O)N3CCCC[C@H]3C(=O)O[C@H](/C(C)=C/[C@@H]3CC[C@@H](O)[C@H](OC)C3)[C@H](C)[C@@H](O)CC1=O)[C@H](C)C[C@@H]2OC", "note": "[FK506, Tacrolimus]", "values": [
      {"measurement": "Aqueous solubility", "setting": "[1]", "result": "0.004 to 0.012", "unit": "mg/mL"},
      {"measurement": "Solubility of FK506 in MCE", "setting": "[2]", "result": 136, "unit": "mg/mL"}
    ]},
    {"smiles": "CC1CCC(C(C)C)C(O)C1", "note": "(stereo not drawn) [Menthol, menthol]", "values": [
      {"measurement": "Duration of cool sensation", "setting": "TRPM8", "result": "up to 70 mins"}
    ]}
  ]
}
